Results taken from the NIST ThermoML archive (doi:10.1016/j.tca.2015.01.022).

Assay: molar heat capacity at constant pressure
Settings: 101.33 kPa, Small (less than 1 g) adiabatic calorimetry

CCCCn1cc[n+](C)c1.F[B-](F)(F)F [1-butyl-3-methylimidazolium tetrafluoroborate]
Settings	molar heat capacity at constant pressure [J/K/mol]
147.63 K, Glass	206.5
149.17 K, Glass	208
149.9 K, Glass	209.1
150 K, Glass	208.9
150.24 K, Glass	209.1
151.78 K, Glass	210.6
152.52 K, Glass	211.6
152.86 K, Glass	211.8
154.39 K, Glass	213.3
155.13 K, Glass	214.2
155.48 K, Glass	214.4
157 K, Glass	216
157.74 K, Glass	216.9
158.09 K, Glass	217.2
159.61 K, Glass	218.7
160 K, Glass	219.3
160.35 K, Glass	219.7
160.71 K, Glass	219.9
162.21 K, Glass	221.6
162.96 K, Glass	222.4
163.32 K, Glass	222.8
164.8 K, Glass	224.5
165.57 K, Glass	225.6
165.93 K, Glass	225.7
167.4 K, Glass	227.5
168.19 K, Glass	228.6
168.53 K, Glass	228.9
169.99 K, Glass	230.8
170 K, Glass	230.8
170.79 K, Glass	232
171.13 K, Glass	232.5
172.58 K, Glass	234.6
173.37 K, Glass	236
173.73 K, Glass	236.7
175.18 K, Glass	239.5
175.96 K, Glass	241.5
176.31 K, Glass	242.4
177.73 K, Glass	247
178.51 K, Glass	249.7
178.86 K, Glass	251.9
180 K, Glass	260.4
180.22 K, Glass	262.1
180.97 K, Glass	268.6
181.29 K, Liquid	276.1
182.48 K, Liquid	309.1
183.17 K, Liquid	322.3
183.45 K, Liquid	329.7
184.59 K, Liquid	329.2
185.3 K, Liquid	329.5
185.6 K, Liquid	330
186.77 K, Liquid	331
187.48 K, Liquid	331.6
187.79 K, Liquid	331.2
188.95 K, Liquid	331.4
189.98 K, Liquid	331.5
190 K, Liquid	331.5
191.13 K, Liquid	331.6
192.17 K, Liquid	331.7
193.32 K, Liquid	331.9
194.37 K, Liquid	332
195.51 K, Liquid	332.2
196.58 K, Liquid	332.3
197.71 K, Liquid	332.5
198.79 K, Liquid	332.6
199.91 K, Liquid	332.8
200 K, Liquid	333
202.13 K, Liquid	333.2
204.34 K, Liquid	333.6
206.55 K, Liquid	334
208.77 K, Liquid	334.5
210 K, Liquid	335.1
210.99 K, Liquid	334.9
213.22 K, Liquid	335.4
215.44 K, Liquid	335.9
220 K, Liquid	337.5
230 K, Liquid	340.4
240 K, Liquid	343.6
250 K, Liquid	347.2
260 K, Liquid	350.9
263.82 K, Liquid	351.8
266.12 K, Liquid	352.8
268.4 K, Liquid	353.7
270 K, Liquid	354.9
270.68 K, Liquid	354.6
272.95 K, Liquid	355.5
275.23 K, Liquid	356.5
277.5 K, Liquid	357.6
279.78 K, Liquid	358.5
280 K, Liquid	359
282.05 K, Liquid	359.5
284.33 K, Liquid	360.3
286.6 K, Liquid	361.3
288.87 K, Liquid	362.4
290 K, Liquid	363.2
291.14 K, Liquid	363.3
293.42 K, Liquid	364.3
295.69 K, Liquid	365.2
297.95 K, Liquid	366.4
298.15 K, Liquid	366.7
300 K, Liquid	367.6
300.22 K, Liquid	367.4
302.49 K, Liquid	368.5
304.75 K, Liquid	369.6
307.02 K, Liquid	370.7
309.28 K, Liquid	371.7
310 K, Liquid	372.3
311.54 K, Liquid	372.7
313.8 K, Liquid	373.8
316.06 K, Liquid	375
318.32 K, Liquid	376.1
320 K, Liquid	377
320.58 K, Liquid	377
322.83 K, Liquid	378
325.09 K, Liquid	379.3
327.34 K, Liquid	380.1
329.59 K, Liquid	381.1
330 K, Liquid	381.7
331.84 K, Liquid	382.2
334.09 K, Liquid	383.3
336.34 K, Liquid	384.3
338.58 K, Liquid	385.6
340 K, Liquid	386.4
340.83 K, Liquid	386.7
343.08 K, Liquid	387.6
345.32 K, Liquid	388.7
347.57 K, Liquid	389.7
349.81 K, Liquid	390.7
350 K, Liquid	391.1
352.05 K, Liquid	391.7
354.29 K, Liquid	392.8
356.53 K, Liquid	393.9
358.76 K, Liquid	394.9
360 K, Liquid	395.9
361 K, Liquid	395.8
363.23 K, Liquid	397.1
365.46 K, Liquid	398
367.7 K, Liquid	399
370 K, Liquid	400.6
